From patent US5624902A, “Peptide inhibitors of calmodulin” (Torrey Pines Institute for Molecular Studies, priority 1995, dated 1997)
Square brackets hold non-standard residues; d marks the D form. Peptide text beside a SMILES is read from it.

Target: calmodulin (Homo sapiens, UniProt P0DP23)
Assay: calcium-dependent phosphodiesterase assay (inhibition of calmodulin activity)
Type: biochemical
Settings: for inhibition at 50 µM: inhibition of calmodulin activation of phosphodiesterase at 50 μM peptide, PDE without calmodulin = 100%, Calmo = 0%; for IC50: concentration inhibiting 50% of calmodulin activity, assayed at 75 μM, 50 μM and 12.5 μM

Row | SMILES | inhibition at 50 µM [%] | IC50 [µM]
1 | CC[C@@H](C)[C@@H](NC(=O)[C@@H](CCC(N)=O)NC(=O)[C@@H](CC(C)C)NC(C)=O)C(=O)N[C@@H](C(=O)N[C@H](CC(C)C)C(=O)N[C@H](CCCNC(=N)N)C(N)=O)[C@H](C)CC [Ac-(D)Leu-(D)Gln-(D)Ile-(D)Ile-(D)Leu-(D)Arg-NH2] (Ac-[dL][dQ][dI][dI][dL][dR]-NH2) | 15.8 | > 50
2 | NCCCCNS(=O)(=O)c1ccc2c(Cl)cccc2c1 [Peptide W13, N-(4-aminobutyl)-5-chloro-2-naphtalenesulfonamide, reference compound] |  | < 75
3 | CC[C@@H](C)[C@@H](NC(=O)[C@@H](CCC(N)=O)NC(=O)[C@@H](CC(C)C)NC(C)=O)C(=O)N[C@H](Cc1c[nH]cn1)C(=O)N[C@H](CC(C)C)C(=O)N[C@H](CCCNC(=N)N)C(N)=O [Ac-(D)Leu-(D)Gln-(D)Ile-(D)His-(D)Leu-(D)Arg-NH2] (Ac-[dL][dQ][dI][dH][dL][dR]-NH2) | 28.9 | 
4 | CC[C@@H](C)[C@@H](NC(=O)[C@@H](CCC(N)=O)NC(=O)[C@@H](CC(C)C)NC(C)=O)C(=O)N[C@@H](C(=O)N[C@H](Cc1c[nH]cn1)C(=O)N[C@H](CCCNC(=N)N)C(N)=O)[C@H](C)CC [Ac-(D)Leu-(D)Gln-(D)Ile-(D)Ile-(D)His-(D)Arg-NH2] (Ac-[dL][dQ][dI][dI][dH][dR]-NH2) | 43.4 | 
5 | CC(=O)N[C@H](CC(C)C)C(=O)N[C@H](CCC(N)=O)C(=O)N[C@H](CCCNC(=N)N)C(=O)N[C@H](Cc1c[nH]cn1)C(=O)N[C@H](CC(C)C)C(=O)N[C@H](CCCNC(=N)N)C(N)=O [Ac-(D)Leu-(D)Gln-(D)Arg-(D)His-(D)Leu-(D)Arg-NH2] (Ac-[dL][dQ][dR][dH][dL][dR]-NH2) | 64.5 | 
6 | CC[C@@H](C)[C@@H](NC(=O)[C@@H](Cc1c[nH]c2ccccc12)NC(=O)[C@@H](CC(C)C)NC(C)=O)C(=O)N[C@@H](C(=O)N[C@H](CC(C)C)C(=O)N[C@H](CCCNC(=N)N)C(N)=O)[C@H](C)CC [Ac-(D)Leu-(D)Trp-(D)Ile-(D)Ile-(D)Leu-(D)Arg-NH2] (Ac-[dL][dW][dI][dI][dL][dR]-NH2) | 85.5 | 10
7 | CC[C@@H](C)[C@@H](NC(=O)[C@@H](CCCNC(=N)N)NC(=O)[C@@H](Cc1c[nH]c2ccccc12)NC(=O)[C@@H](CC(C)C)NC(C)=O)C(=O)N[C@H](CC(C)C)C(=O)N[C@H](Cc1c[nH]c2ccccc12)C(N)=O [Ac-(D)Leu-(D)Trp-(D)Arg-(D)Ile-(D)Leu-(D)Trp-NH2] (Ac-[dL][dW][dR][dI][dL][dW]-NH2) | 101 | 15
8 | CC[C@@H](C)[C@@H](NC(=O)[C@@H](CCCNC(=N)N)NC(=O)[C@@H](Cc1c[nH]c2ccccc12)NC(=O)[C@@H](CC(C)C)NC(C)=O)C(=O)N[C@H](CC(C)C)C(=O)N[C@H](CCCNC(=N)N)C(N)=O [Ac-(D)Leu-(D)Trp-(D)Arg-(D)Ile-(D)Leu-(D)Arg-NH2] (Ac-[dL][dW][dR][dI][dL][dR]-NH2) | 107 | 15
9 | CC[C@@H](C)[C@@H](NC(=O)[C@@H](CCCNC(=N)N)NC(=O)[C@@H](CCC(N)=O)NC(=O)[C@@H](CC(C)C)NC(C)=O)C(=O)N[C@H](Cc1c[nH]cn1)C(=O)N[C@H](CCCNC(=N)N)C(N)=O [Ac-(D)Leu-(D)Gln-(D)Arg-(D)Ile-(D)His-(D)Arg-NH2] (Ac-[dL][dQ][dR][dI][dH][dR]-NH2) | 21.1 | > 50
10 | CC(=O)N[C@H](CC(C)C)C(=O)N[C@H](CCC(N)=O)C(=O)N[C@H](CCCNC(=N)N)C(=O)N[C@H](Cc1c[nH]cn1)C(=O)N[C@H](Cc1c[nH]cn1)C(=O)N[C@H](CCCNC(=N)N)C(N)=O [Ac-(D)Leu-(D)Gln-(D)Arg-(D)His-(D)His-(D)Arg-NH2] (Ac-[dL][dQ][dR][dH][dH][dR]-NH2) | 63.2 | 
11 | CC[C@@H](C)[C@@H](NC(=O)[C@@H](Cc1c[nH]c2ccccc12)NC(=O)[C@@H](CC(C)C)NC(C)=O)C(=O)N[C@@H](C(=O)N[C@H](CC(C)C)C(=O)N[C@H](Cc1c[nH]c2ccccc12)C(N)=O)[C@H](C)CC [Ac-(D)Leu-(D)Trp-(D)Ile-(D)Ile-(D)Leu-(D)Trp-NH2] (Ac-[dL][dW][dI][dI][dL][dW]-NH2) | 23.7 | > 50

Continued, values first:

Row | inhibition at 50 µM [%] | IC50 [µM] | SMILES
12 | 103 |  | CC[C@@H](C)[C@@H](NC(=O)[C@@H](Cc1c[nH]c2ccccc12)NC(=O)[C@@H](CC(C)C)NC(C)=O)C(=O)N[C@H](Cc1c[nH]cn1)C(=O)N[C@H](CC(C)C)C(=O)N[C@H](Cc1c[nH]c2ccccc12)C(N)=O [Ac-(D)Leu-(D)Trp-(D)Ile-(D)His-(D)Leu-(D)Trp-NH2] (Ac-[dL][dW][dI][dH][dL][dW]-NH2)
13 | 43.4 |  | CC[C@@H](C)[C@@H](NC(=O)[C@@H](CCC(N)=O)NC(=O)[C@@H](CC(C)C)NC(C)=O)C(=O)N[C@H](Cc1c[nH]cn1)C(=O)N[C@H](Cc1c[nH]cn1)C(=O)N[C@H](CCCNC(=N)N)C(N)=O [Ac-(D)Leu-(D)Gln-(D)Ile-(D)His-(D)His-(D)Arg-NH2] (Ac-[dL][dQ][dI][dH][dH][dR]-NH2)
14 | 103 | 24 | CC[C@@H](C)[C@@H](NC(=O)[C@@H](Cc1c[nH]c2ccccc12)NC(=O)[C@@H](CC(C)C)NC(C)=O)C(=O)N[C@H](Cc1c[nH]cn1)C(=O)N[C@H](Cc1c[nH]cn1)C(=O)N[C@H](Cc1c[nH]c2ccccc12)C(N)=O [Ac-(D)Leu-(D)Trp-(D)Ile-(D)His-(D)His-(D)Trp-NH2] (Ac-[dL][dW][dI][dH][dH][dW]-NH2)
15 | 44.7 |  | CC(=O)N[C@H](CC(C)C)C(=O)N[C@H](CCC(N)=O)C(=O)N[C@H](CCCNC(=N)N)C(=O)N[C@H](Cc1c[nH]cn1)C(=O)N[C@H](CC(C)C)C(=O)N[C@H](Cc1c[nH]c2ccccc12)C(N)=O [Ac-(D)Leu-(D)Gln-(D)Arg-(D)His-(D)Leu-(D)Trp-NH2] (Ac-[dL][dQ][dR][dH][dL][dW]-NH2)
16 | 57.9 |  | CC(=O)N[C@H](CC(C)C)C(=O)N[C@H](Cc1c[nH]c2ccccc12)C(=O)N[C@H](CCCNC(=N)N)C(=O)N[C@H](Cc1c[nH]cn1)C(=O)N[C@H](Cc1c[nH]cn1)C(=O)N[C@H](CCCNC(=N)N)C(N)=O [Ac-(D)Leu-(D)Trp-(D)Arg-(D)His-(D)His-(D)Arg-NH2] (Ac-[dL][dW][dR][dH][dH][dR]-NH2)
17 | 89.5 | 43 | CC[C@@H](C)[C@@H](NC(=O)[C@@H](Cc1c[nH]c2ccccc12)NC(=O)[C@@H](CC(C)C)NC(C)=O)C(=O)N[C@@H](C(=O)N[C@H](Cc1c[nH]cn1)C(=O)N[C@H](CCCNC(=N)N)C(N)=O)[C@H](C)CC [Ac-(D)Leu-(D)Trp-(D)Ile-(D)Ile-(D)His-(D)Arg-NH2] (Ac-[dL][dW][dI][dI][dH][dR]-NH2)
18 | 35.5 |  | CSCC[C@@H](NC(=O)[C@@H](CCSC)NC(=O)[C@@H](Cc1ccccc1)NC(=O)[C@@H](Cc1c[nH]cn1)NC(=O)[C@@H](CC(=O)O)NC(C)=O)C(=O)N[C@H](C)C(N)=O [Ctr 2, Ac-(D)Asp-(D)His-(D)Phe-(D)Met-(D)Met-(D)-Ala-NH2, reference compound] (Ac-[dD][dH][dF][dM][dM][dA]-NH2)
19 | 46 |  | CC[C@@H](C)[C@@H](NC(=O)[C@@H](CCC(N)=O)NC(=O)[C@@H](CC(C)C)NC(C)=O)C(=O)N[C@H](Cc1c[nH]cn1)C(=O)N[C@H](CC(C)C)C(=O)N[C@H](Cc1c[nH]c2ccccc12)C(N)=O [Ac-(D)Leu-(D)Gln-(D)Ile-(D)His-(D)Leu-(D)Trp-NH2] (Ac-[dL][dQ][dI][dH][dL][dW]-NH2)
20 | 68.4 | 32 | CC[C@@H](C)[C@@H](NC(=O)[C@@H](CCCNC(=N)N)NC(=O)[C@@H](Cc1c[nH]c2ccccc12)NC(=O)[C@@H](CC(C)C)NC(C)=O)C(=O)N[C@H](Cc1c[nH]cn1)C(=O)N[C@H](CCCNC(=N)N)C(N)=O [Ac-(D)Leu-(D)Trp-(D)Arg-(D)Ile-(D)His-(D)Arg-NH2] (Ac-[dL][dW][dR][dI][dH][dR]-NH2)
21 | 36.8 |  | CSCC[C@@H](NC(=O)[C@@H](Cc1c[nH]cn1)NC(=O)[C@@H](Cc1ccccc1)NC(=O)[C@@H](Cc1ccccc1)NC(C)=O)C(=O)N[C@H](CCSC)C(=O)N1CCC[C@@H]1C(N)=O [Ctr 1, Ac-(D)Phe-(D)Phe-(D)His-(D)-Met-(D)Met-(D)Pro-NH2, reference compound] (Ac-[dF][dF][dH][dM][dM][dP]-NH2)
22 | 79 |  | CC(=O)N[C@H](CC(C)C)C(=O)N[C@H](CCC(N)=O)C(=O)N[C@H](CCCNC(=N)N)C(=O)N[C@H](Cc1c[nH]cn1)C(=O)N[C@H](Cc1c[nH]cn1)C(=O)N[C@H](Cc1c[nH]c2ccccc12)C(N)=O [Ac-(D)Leu-(D)Gln-(D)Arg-(D)His-(D)His-(D)Trp-NH2] (Ac-[dL][dQ][dR][dH][dH][dW]-NH2)
23 | 52.6 |  | CC[C@@H](C)[C@@H](NC(=O)[C@@H](CCCNC(=N)N)NC(=O)[C@@H](Cc1c[nH]c2ccccc12)NC(=O)[C@@H](CC(C)C)NC(C)=O)C(=O)N[C@H](Cc1c[nH]cn1)C(=O)N[C@H](Cc1c[nH]c2ccccc12)C(N)=O [Ac-(D)Leu-(D)Trp-(D)Arg-(D)Ile-(D)His-(D)Trp-NH2] (Ac-[dL][dW][dR][dI][dH][dW]-NH2)
24 | 35.5 |  | CC[C@@H](C)[C@@H](NC(=O)[C@@H](CCC(N)=O)NC(=O)[C@@H](CC(C)C)NC(C)=O)C(=O)N[C@@H](C(=O)N[C@H](Cc1c[nH]cn1)C(=O)N[C@H](Cc1c[nH]c2ccccc12)C(N)=O)[C@H](C)CC [Ac-(D)Leu-(D)Gln-(D)Ile-(D)Ile-(D)His-(D)Trp-NH2] (Ac-[dL][dQ][dI][dI][dH][dW]-NH2)
25 | 34.2 | 40 | CC[C@@H](C)[C@@H](NC(=O)[C@@H](CCCNC(=N)N)NC(=O)[C@@H](CCC(N)=O)NC(=O)[C@@H](CC(C)C)NC(C)=O)C(=O)N[C@H](Cc1c[nH]cn1)C(=O)N[C@H](Cc1c[nH]c2ccccc12)C(N)=O [Ac-(D)Leu-(D)Gln-(D)Arg-(D)Ile-(D)His-(D)Trp-NH2] (Ac-[dL][dQ][dR][dI][dH][dW]-NH2)
26 | 39.5 | > 50 | CC(=O)N[C@H](CC(C)C)C(=O)N[C@H](Cc1c[nH]c2ccccc12)C(=O)N[C@H](CCCNC(=N)N)C(=O)N[C@H](Cc1c[nH]cn1)C(=O)N[C@H](CC(C)C)C(=O)N[C@H](CCCNC(=N)N)C(N)=O [Ac-(D)Leu-(D)Trp-(D)Arg-(D)His-(D)Leu-(D)Arg--NH2] (Ac-[dL][dW][dR][dH][dL][dR]-NH2)
